Source: patent publication US9708336B2, “Metallo-beta-lactamase inhibitors” (priority 2014, dated 2017)
Like-named read-outs stand apart in the source and are kept apart here.

How the values were obtained:
[1] = test system: Escherichia coli expressing NDM-1 (CLB30016); assay: Antibiotic potentiation activity: synergistic concentration (MITC95) with imipenem, OD600 growth; assay type: cell-based; conditions: for Escherichia coli expressing NDM-1 (CLB 30016) MITC95: concentration giving 95% inhibition of bacterial growth
Procedure: (§1) Antibiotic Potentiation Activity: Determination of Synergistic Concentration
(§2) The bacterial strains tested included the clinical strains Escherichia coli expressing NDM-1 (CLB30005, CLB30016), Serratia marcescens expressing IMP-1 (CL5741), and Klebsiella pneumoniae expressing VIM-1 (IHMA599644) Inhibitor activity was measured in the presence and absence of imipenem in a 384-well microplate.
(§3) The clinical strains CLB30016, CL5741 and IHMA599644 were grown on trypticase soy agar containing 5% sheep's blood. The clinical strain CLB30005 was grown on Mueller Hinton broth agar containing 8 ug/ml imipenem. The bacteria on agar plates were incubated at 35° C. with humidity overnight. The following day, individual colonies from each clinical strain were picked and resuspended in 5 ml saline to attain an OD600 of 0.14, 0.11, 0.15 and 0.13, for CLB30005, CLB30016, CL5741 and IHMA599644, respectively. These were further diluted 1:100 into 1.1×CAMHB and used to inoculate the test wells as described below.
(§4) Imipenem in 10 mM 3-(N-morpholino)propanesulfonic acid (MOPS, pH 7) was stored in single use aliquots at −80° C. […] On the day of the assay, 4 μl of antibiotic was added to 45 ul of bacteria followed by 1 μl of test compound and mixed by pipetting and with an orbital shaker. The concentration of antibiotic used in the assay was 4 μg/ml, or optionally 1 μg/ml. Microplates were covered and incubated at 35° C. for 22 hours to 24 hours. At the end of the incubation, absorbance was determined using a spectrophotometer.

[2] = test system: Klebsiella pneumoniae expressing VIM-1 (IHMA599644); assay: as above; assay type: cell-based; conditions: for Klebsiella pneumoniae expressing VIM-1 (IHMA 599644) MITC95: concentration giving 95% inhibition of bacterial growth
Procedure: as §1, §2, §3, §4

[3] = test system: Serratia marcescens expressing IMP-1 (CL5741); assay: as above; assay type: cell-based; conditions: for Serratia marcescens expressing IMP-1 (CL5741) MITC95: concentration giving 95% inhibition of bacterial growth
Procedure: as §1, §2, §3, §4

NDM-1 = NDM-1 (Klebsiella pneumoniae, UniProt C7C422); assay: biochemical; assay type: biochemical; conditions: read-out: NDM-1 IC50
IMP-1 = IMP-1 (Serratia marcescens, UniProt P52699); assay: biochemical; assay type: biochemical; conditions: read-out: IMP-1 IC50
VIM-1 = VIM-1 (Pseudomonas aeruginosa (strain ATCC 15692 / DSM 22644 / CIP 104116 / JCM 14847 / LMG 12228 / 1C / PRS 101 / PAO1), UniProt A0A0F7KYQ8); assay: Enzyme activity: determination of IC50, fluorescence assay with CCF2-FA substrate (VIM-1); assay type: biochemical
[4] = CLB30016 (NDM-1), 95% inhibition of bacterial growth
[5] = IHMA599644 (VIM-1), 95% inhibition of bacterial growth
[6] = CL5741 (IMP-1), 95% inhibition of bacterial growth
[7] = fluorescence assay with CCF2-FA substrate
[8] = (CLB30016, NDM-1), 95% growth inhibition
[9] = Klebsiella pneumoniae IHMA599644 (VIM-1), 95% growth inhibition
[10] = Serratia marcescens CL5741 (IMP-1), 95% growth inhibition
[11] = NDM-1 enzyme, CCF2-FA substrate
[12] = IMP-1 enzyme, CCF2-FA substrate
[13] = fluorescence assay with CCF2-FA substrate; read-out: VIM-1 IC50
[14] = Escherichia coli expressing NDM-1 (CLB30016), 95% growth inhibition
[15] = Klebsiella pneumoniae expressing VIM-1 (IHMA599644), 95% growth inhibition
[16] = Serratia marcescens expressing IMP-1 (CL5741), 95% growth inhibition
[17] = NDM-1 enzyme, CCF2-FA fluorescence assay
[18] = IMP-1 enzyme, CCF2-FA fluorescence assay

Chain of IMP-1 (P52699 whole entry, looked up): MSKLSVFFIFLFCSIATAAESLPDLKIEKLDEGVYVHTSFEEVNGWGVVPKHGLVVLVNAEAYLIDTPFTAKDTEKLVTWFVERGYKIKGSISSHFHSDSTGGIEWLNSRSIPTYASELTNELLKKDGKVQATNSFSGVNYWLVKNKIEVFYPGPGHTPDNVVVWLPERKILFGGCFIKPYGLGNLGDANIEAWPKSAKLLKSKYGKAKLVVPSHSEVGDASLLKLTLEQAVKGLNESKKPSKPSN
Chain of NDM-1 (C7C422 whole entry, looked up, species assumed): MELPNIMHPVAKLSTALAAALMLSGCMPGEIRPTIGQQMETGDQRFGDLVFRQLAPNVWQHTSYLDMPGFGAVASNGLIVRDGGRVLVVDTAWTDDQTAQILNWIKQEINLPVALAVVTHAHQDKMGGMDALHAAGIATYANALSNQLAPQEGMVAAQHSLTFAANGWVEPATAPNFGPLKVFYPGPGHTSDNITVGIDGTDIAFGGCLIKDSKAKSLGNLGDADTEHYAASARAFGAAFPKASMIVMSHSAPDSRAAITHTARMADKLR

## NC1CCCC1N1CCC(c2ccc(-c3ccc(C(F)(F)F)c(S(N)(=O)=O)c3-c3nnn[nH]3)cc2)CC1 (stereo not drawn) [Example 791, 4′-[1-(2-aminocyclopentyl)piperidin-4-yl]-2-(1H-tetrazol-5-yl)-4-(trifluoromethyl)biphenyl-3-sulfonamide]
[1]; [4]
  Escherichia coli MITC95: 0.7813 µM
[2]; [5]
  Klebsiella pneumoniae MITC95: 50 µM
[3]; [6]
  Serratia marcescens MITC95: 1.563 µM
NDM-1; [7]
  IC50: 6.26 nM
IMP-1; [7]
  IC50: 1.2 nM

## NC1CCN(C2CCN(c3ccc(C(F)(F)F)c(S(N)(=O)=O)c3-c3nnn[nH]3)CC2)C1 (stereo not drawn) [Example 768, 3-[4-(3-aminopyrrolidin-1-yl)piperidin-1-yl]-2-(1H-tetrazol-5-yl)-6-(trifluoromethyl) benzenesulfonamide]
[1]; [4]
  Escherichia coli MITC95: 12.5 µM
[2]; [5]
  Klebsiella pneumoniae MITC95: 3.125 µM
[3]; [6]
  Serratia marcescens MITC95: 6.25 µM
NDM-1; [7]
  IC50: 24.6 nM
IMP-1; [7]
  IC50: 36.7 nM

## NCCNc1ccc(-c2cccc(S(N)(=O)=O)c2-c2nnn[nH]2)cn1 [Example 634, 3-[6-(2-aminoethylamino)-3-pyridyl]-2-(1H-tetrazol-5-yl)benzenesulfonamide]
[1]; [8]
  Escherichia coli MITC95: 0.5859 µM
[2]; [9]
  Klebsiella pneumoniae MITC95: 6.25 µM
[3]; [10]
  Serratia marcescens MITC95: 18.75 µM
NDM-1; [11]
  IC50: 14.1 nM
IMP-1; [12]
  IC50: 1280 nM

## NS(=O)(=O)c1cccc(-c2ccc3nonc3c2)c1-c1nnn[nH]1 [Example 130, 3-(benzo[c][1,2,5]oxadiazol-5-yl)-2-(1H-tetrazol-5-yl)benzenesulfonamide]
[1]
  Escherichia coli expressing NDM-1 (CLB 30016) MITC95: 1.172 µM
[2]
  Klebsiella pneumoniae expressing VIM-1 (IHMA 599644) MITC95: 37.5 µM
[3]
  Serratia marcescens expressing IMP-1 (CL5741) MITC95: 9.375 µM
NDM-1; [7]
  IC50: 10.6 nM
IMP-1; [7]
  IC50: 267 nM

## NS(=O)(=O)c1cccc(-c2ccc(NC3CCNC3)nc2)c1-c1nnn[nH]1 (stereo not drawn) [Example 628, 3-[6-(pyrrolidin-3-ylamino)-3-pyridyl]-2-(1H-tetrazol-5-yl)benzenesulfonamide]
[1]; [8]
  Escherichia coli MITC95: 0.9766 µM
[2]; [9]
  Klebsiella pneumoniae MITC95: 12.5 µM
[3]; [10]
  Serratia marcescens MITC95: 12.5 µM
NDM-1; [11]
  IC50: 45 nM
IMP-1; [12]
  IC50: 650 nM

## Nc1nc2cncc(-c3ccc(C(F)(F)F)c(S(N)(=O)=O)c3-c3nnn[nH]3)c2[nH]1 [Example 571, 3-(2-amino-1H-imidazo[4,5-c]pyridin-7-yl)-2-(1H-tetrazol-5-yl)-6-(trifluoromethyl)benzenesulfonamide]
[1]; [8]
  Escherichia coli MITC95: 0.7813 µM
[2]; [9]
  Klebsiella pneumoniae MITC95: 6.25 µM
[3]; [10]
  Serratia marcescens MITC95: 3.125 µM
NDM-1; [11]
  IC50: 1.71 nM
IMP-1; [12]
  IC50: 14.8 nM

## NS(=O)(=O)c1c(C(F)(F)F)ccc(N2CC3(CCNCC3)C2)c1-c1nnn[nH]1 [Example 782]
VIM-1; read-out: VIM-1 IC50; fluorescence assay with CCF2-FA substrate
  IC50: 9.5 nM

## NS(=O)(=O)c1cccc(C2=CCS(=O)(=O)CC2)c1-c1nnn[nH]1 [Example 141, 3-(1,1-dioxido-3,6-dihydro-2H-thiopyran-4-yl)-2-(1H-tetrazol-5-yl)benzenesulfonamide]
[1]
  Escherichia coli expressing NDM-1 (CLB 30016) MITC95: 0.7813 µM
[2]
  Klebsiella pneumoniae expressing VIM-1 (IHMA 599644) MITC95: 200 µM
[3]
  Serratia marcescens expressing IMP-1 (CL5741) MITC95: 37.5 µM
NDM-1; [7]
  IC50: 61.5 nM
IMP-1; [7]
  IC50: 2340 nM

## NS(=O)(=O)c1cccc(-c2ccc3ncnn3c2)c1-c1nnn[nH]1 [Example 111, 3-([1,2,4]triazolo[1,5-a]pyridin-6-yl)-2-(1H-tetrazol-5-yl)benzenesulfonamide]
[1]
  Escherichia coli expressing NDM-1 (CLB 30016) MITC95: 1.172 µM
[2]
  Klebsiella pneumoniae expressing VIM-1 (IHMA 599644) MITC95: 18.75 µM
[3]
  Serratia marcescens expressing IMP-1 (CL5741) MITC95: 9.375 µM

## NS(=O)(=O)c1c(C(F)(F)F)ccc(C2CCC2)c1-c1nnn[nH]1 [Example 492, 3-cyclobutyl-2-(1H-tetrazol-5-yl)-6-(trifluoromethyl)benzenesulfonamide]
[1]; [8]
  Escherichia coli MITC95: 3.125 µM
[2]; [9]
  Klebsiella pneumoniae MITC95: 12.5 µM
[3]; [10]
  Serratia marcescens MITC95: 0.3906 µM
NDM-1; [11]
  IC50: 17.3 nM
IMP-1; [12]
  IC50: 16 nM

## NS(=O)(=O)c1cccc(-c2ccc(C(=O)NC3CCOC3)cc2)c1-c1nn[nH]n1 (stereo not drawn) [Example 2, 3′-sulfamoyl-N-(tetrahydrofuran-3-yl)-2′-(2H-tetrazol-5-yl)biphenyl-4-carboxamide]
VIM-1; [13]
  IC50: 1910 nM
NDM-1; [7]
  IC50: 52.3 nM
IMP-1; [7]
  IC50: 262 nM

## NS(=O)(=O)c1c(C(F)(F)F)ccc(N2CCN3C(=O)OCC3C2)c1-c1nnn[nH]1 (stereo not drawn) [Example 667, 3-(3-oxotetrahydro[1,3]oxazolo[3,4-a]pyrazin-7(1H)-yl)-2-(1H-tetrazol-5-yl)-6-(trifluoromethyl)benzenesulfonamide]
[1]; [8]
  Escherichia coli MITC95: 3.125 µM
[2]; [9]
  Klebsiella pneumoniae MITC95: 9.375 µM
[3]; [10]
  Serratia marcescens MITC95: 2.344 µM
NDM-1; [11]
  IC50: 19.7 nM
IMP-1; [12]
  IC50: 75 nM

## CN1[C@@H]2CC[C@H]1CC(NCc1ccc(-c3cccc(S(N)(=O)=O)c3-c3nnn[nH]3)cc1)C2 (stereo partly drawn) [Example 366, 4′-({[(3-endo)-8-methyl-8-azabicyclo[3.2.1]oct-3-yl]amino}methyl)-2-(1H-tetrazol-5-yl)biphenyl-3-sulfonamide]
[1]; [14]
  Escherichia coli MITC95: 1.172 µM
[2]; [15]
  Klebsiella pneumoniae MITC95: 150 µM
[3]; [16]
  Serratia marcescens MITC95: 3.125 µM
NDM-1; [17]
  IC50: 18.2 nM
IMP-1; [18]
  IC50: 257 nM

## NS(=O)(=O)c1c(C(F)(F)F)ccc(-c2ccc3nccn3c2)c1-c1nnn[nH]1 [Example 484, 3-(Imidazo[1,2-a]pyridin-6-yl)-2-(1H-tetrazol-5-yl)-6-(trifluoromethyl)benzenesulfonamide]
[1]; [14]
  Escherichia coli MITC95: 0.25 µM
[2]; [15]
  Klebsiella pneumoniae MITC95: 1.708 µM
[3]; [16]
  Serratia marcescens MITC95: 0.3828 µM
NDM-1; [17]
  IC50: 1.22 nM
IMP-1; [18]
  IC50: 6.58 nM

## NS(=O)(=O)c1cccc(-c2ccc(CO)cc2)c1-c1nnn[nH]1 [Example 26, 4′-(hydroxymethyl)-2-(1H-tetrazol-5-yl)biphenyl-3-sulfonamide]
[2]
  Klebsiella pneumoniae expressing VIM-1 (IHMA 599644) MITC95: 50 µM
VIM-1; [13]
  IC50: 58.4 nM
NDM-1; [7]
  IC50: 2.43 nM
IMP-1; [7]
  IC50: 46.2 nM

## NC1CCC(Cc2ccc(-c3ccc(C4CCNCC4)cc3)c(-c3nn[nH]n3)c2S(N)(=O)=O)CC1 (stereo not drawn) [Example 463, 4-(((1r,4r)-4-aminocyclohexyl)methyl)-4′-(piperidin-4-yl)-2-(2H-tetrazol-5-yl)-[1,1′-biphenyl]-3-sulfonamide]
[1]; [14]
  Escherichia coli MITC95: 0.7813 µM
[2]; [15]
  Klebsiella pneumoniae MITC95: 0.7813 µM
[3]; [16]
  Serratia marcescens MITC95: 0.1953 µM
IMP-1; [18]
  IC50: 6.58 nM

## NS(=O)(=O)c1cccc(C2CCN(C(=O)C3(c4ccccc4)CC3)CC2)c1-c1nn[nH]n1 [Example 176, 3-(1-(1-phenylcyclopropanecarbonyl)piperidin-4-yl)-2-(2H-tetrazol-5-yl)benzenesulfonamide]
VIM-1; [13]
  IC50: 148 nM
NDM-1; [7]
  IC50: 6.43 nM
IMP-1; [7]
  IC50: 72.8 nM

## NC1CCC(Cc2ccc(-c3ccc(C4CCNCC4)cc3)c(-c3nn[nH]n3)c2S(N)(=O)=O)CC1 (stereo not drawn) [Example 455, 4-(((1s,4s)-4-aminocyclohexyl)methyl)-4′-(piperidin-4-yl)-2-(2H-tetrazol-5-yl)-[1,1′-biphenyl]-3-sulfonamide]
[1]; [14]
  Escherichia coli MITC95: 0.5859 µM
[2]; [15]
  Klebsiella pneumoniae MITC95: 1.563 µM
[3]; [16]
  Serratia marcescens MITC95: 0.3906 µM
IMP-1; [18]
  IC50: 6.29 nM

## Cc1cc(-c2nnn[nH]2)c(S(N)(=O)=O)cc1C [Example 252, 4,5-Dimethyl-2-(2H-tetrazol-5-yl)benzenesulfonamide]
VIM-1; VIM-1 enzyme, CCF2-FA fluorescence assay; read-out: VIM-1 IC50
  IC50: 156000 nM
NDM-1; [17]
  IC50: 591 nM
IMP-1; [18]
  IC50: 112000 nM

## NS(=O)(=O)c1nccc(N2CCC(CN3CCOCC3)CC2)c1-c1nnn[nH]1 [Example 224, 4-[4-(morpholin-4-ylmethyl)piperidin-1-yl]-3-(1H-tetrazol-5-yl)pyridine-2-sulfonamide]
[1]
  Escherichia coli expressing NDM-1 (CLB 30016) MITC95: 4.688 µM
[2]
  Klebsiella pneumoniae expressing VIM-1 (IHMA 599644) MITC95: 200 µM
[3]
  Serratia marcescens expressing IMP-1 (CL5741) MITC95: 18.75 µM
NDM-1; [7]
  IC50: 247 nM
